Measurements: US12421217B2, “Pyrazine derivative or salt thereof, and use of same” (FUJIFILM Corporation, priority 2019, dated 2025)

Assays:
[1] = tested on: human myeloid leukemia cell line HL60; experiment: Cell growth test (Cell Titer Glo); format: cell-based; conditions: HL-60, 72 h, HL60 cells, 3 days, read-out: Cell growth inhibitory effect (GI50)
Experimental: The cell growth test was carried out using the human myeloid leukemia cell line HL60 (available from ATCC, CRL-240). As a culture medium of HL60 cells, RPMI 1640 (available from FUJIFILM Wako Pure Chemical Corporation, 189-02025) supplemented with 10% fetal bovine serum (available from Thermo Fisher Scientific, Inc., 10437-028), and 1% penicillin-streptomycin (10,000 U/mL, available from Thermo Fisher Scientific, Inc., 15140-122) was used. HL60 cells were seeded on a 384-well plate (available from Corning Inc., 4588) at a cell density of 1×10^3 cells/20 μL/well. After culturing overnight, 5 μL of the test compound having a predetermined concentration was added, and 3 days later, 25 μL of Cell Titer Glo (registered trademark) Luminescent Cell Viability Assay (available from Promega Corporation, G7573) was added, and then the amount of luminescence was measured using an EnVision plate reader (available from PerkinElmer, Inc.). Since the amount of luminescence is proportional to the intracellular concentration of adenosine triphosphate (ATP), the amount of luminescence was used as an indicator of the number of viable cells. The growth inhibitory concentration for each test compound concentration was calculated by the following expression.
(§1) The growth inhibition rate at each test compound concentration was determined, and the 50% growth inhibitory concentration [GI50 (nmol/L)] was calculated using XLfit. Growth inhibition rate (%)=(amount of luminescence in test compound-added well)/(amount of luminescence in DMSO-added well)×100
The abbreviations in the table have the following meanings. • A: GI50 value<100 nmol/L • B: 100 nmol/L≤GI50 value<1,000 nmol/L • C: 1,000 nmol/L≤GI50 value

recombinant human DHODH = molecular target: T1, recombinant human DHODH (Homo sapiens, UniProt Q02127); experiment: Enzyme reaction inhibition test (DHODH enzyme assay, DCIP quenching); format: biochemical; conditions: DCIP absorbance 600 nm, 50 minutes, read-out: Enzyme reaction inhibitory effect (IC50)
T1 construct: DHODH, 31-395 aa, Human, His tag, E. coli, ATGP1615; His tag; purchased ATGen Co. Ltd. ATGP1615; host or cells: E. coli
T1 sequence (Q02127 31-395): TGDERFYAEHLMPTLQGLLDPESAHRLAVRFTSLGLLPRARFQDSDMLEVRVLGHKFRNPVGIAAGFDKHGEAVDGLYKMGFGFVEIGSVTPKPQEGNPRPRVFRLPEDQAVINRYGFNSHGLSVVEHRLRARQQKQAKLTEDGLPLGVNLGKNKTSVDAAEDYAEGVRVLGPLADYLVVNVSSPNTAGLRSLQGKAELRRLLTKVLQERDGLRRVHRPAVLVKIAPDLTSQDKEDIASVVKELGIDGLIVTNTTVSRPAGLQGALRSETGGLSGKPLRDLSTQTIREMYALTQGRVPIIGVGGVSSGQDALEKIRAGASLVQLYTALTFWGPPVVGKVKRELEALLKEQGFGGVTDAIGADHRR
Experimental: The DHODH enzyme assay was carried out with reference to “Benjamin Bader, Wolfgang Knecht, Markus Fries, and Monika Loffler. Expression, Purification, and Characterization of Histidine-Tagged Rat and Human Flavoenzyme Dihydroorotate Dehydrogenase. Protein Expression and Purification, 1998, 13, 414-422.”
The DHODH activity was evaluated using an enzyme assay system that is coupled with an assay in which a blue coloring agent 2,6-dichlorophenol indophenol (DCIP, available from MP Biomedicals, LLC, MP150118) is quenched. Purified recombinant human DHODH (DHODH, 31-395 aa, Human, His tag, E. coli, ATGP1615) was purchased from ATGen Co. Ltd. The enzyme assay was carried out in a 384-well plate using a buffer solution containing 100 mmol/L Hepes (available from Dojindo Laboratories, 342-01375), 400 mmol/L NaCl (available from FUJIFILM Wako Pure Chemical Corporation, 191-01665), 10% Glycerol (available from FUJIFILM Wako Pure Chemical Corporation, 075-00616), 0.05% Triton X-100 (available from Sigma-Aldrich Co., LLC, T8787-100ML), 0.2 mmol/L Ubiquinone-10 (available from FUJIFILM Wako Pure Chemical Corporation, 216-00761), 0.1 mmol/L DHO (L-dihydroorotic acid, available from Sigma-Aldrich Co., LLC, D7128), 0.5% DMSO (dimethylsulfoxide, available from FUJIFILM Wako Pure Chemical Corporation, 047-29353), 0.175 μg/mL DHODH, and 0.12 mmol/L DCIP and having a pH adjusted to 8.0 by adding 5 mol/L potassium hydroxide (available from FUJIFILM Wako Pure Chemical Corporation, 168-21815). A test compound with a predetermined concentration was added using Biomek NX (available from Beckman Coulter Inc.), and the enzymatic reaction was started by adding the substrate. The enzyme activity was assessed by measuring the decrease in DCIP absorbance (600 nm) for 50 minutes using an EnVision plate-reading spectrophotometer (available from PerkinElmer, Inc.).
as §1, with “enzyme reaction” for “growth”, “enzyme reaction inhibition” for “growth inhibitory”, “[IC50” for “[GI50”, “Enzyme reaction” for “Growth”
The abbreviations in the table have the following meanings. • A: IC50 value<10 nmol/L • B: 10 nmol/L≤IC50 value<100 nmol/L • C: 100 nmol/L≤IC50 value

GI50 [1] [nM] | IC50 (recombinant human DHODH) [nM] | Structure (SMILES)
≥ 1000 | 10 to 100 | O=C(O)c1nc(C2CC2)cnc1Nc1ccc(F)c(C2=CCOCC2)c1F [Example 19-26]
100 to 1000 | 10 to 100 | O=C(O)c1nc(C2CC2)cnc1Nc1cccc(C2=CCOCC2)c1CCCF [Example 19-27]
100 to 1000 | 10 to 100 | CCOc1c(Nc2ncc(C3CC3)nc2C(=O)O)cccc1C1=CCOCC1 [Example 19-21]
< 100 | < 10 | O=C(O)c1nc(C2CC2)cnc1Nc1cccc(C2=CCOCC2)c1OCC(F)(F)C(F)(F)F [Example 19-7]
100 to 1000 | < 10 | O=C(O)c1nc(C2CC2)cnc1Nc1cccc(C2=CCOCC2)c1OCC(F)F [Example 19-3]
100 to 1000 | < 10 | O=C(O)c1nc(C2CC2)cnc1Nc1cccc(C2=CCOCC2)c1OC(F)F [Example 14, 6-cyclopropyl-3-((2-(difluoromethoxy)-3-(3,6-dihydro-2H-pyran-4-yl)phenyl)amino)pyrazine-2-carboxylic acid]
100 to 1000 | 10 to 100 | O=C(O)c1nc(C2CC2)cnc1Nc1cccc(C2=CCOCC2)c1COCC(F)(F)F [Example 19-10]
< 100 | < 10 | O=C(O)c1nc(C2CC2)cnc1Nc1cccc(C2=CCOCC2)c1OCCC(F)(F)F [Example 19-8]
≥ 1000 | 10 to 100 | O=C(O)c1nc(C2CC2)cnc1Nc1cccc(C2=CCOCC2)c1F [Example 19-22]
100 to 1000 | 10 to 100 | CCCc1c(Nc2ncc(C3CC3)nc2C(=O)O)cccc1C1=CCOCC1 [Example 19-16]
100 to 1000 | < 10 | O=C(O)c1nc(C2CC2)cnc1Nc1cc(F)cc(C2=CCOCC2)c1OC(F)F [Example 19-1]
≥ 1000 | 10 to 100 | COc1c(Nc2ncc(C3CC3)nc2C(=O)O)cccc1C1=CCOCC1 [Example 19-20]
100 to 1000 | 10 to 100 | CC(Oc1c(Nc2ncc(C3CC3)nc2C(=O)O)cccc1C1=CCOCC1)C(F)(F)F (stereo not shown) [Example 19-6]

The next lines start with the compound.

Structure (SMILES) | GI50 [1] [nM] | IC50 (recombinant human DHODH) [nM]
CC1=C(c2cccc(Nc3ncc(C4CC4)nc3C(=O)O)c2OCC(F)(F)F)CCOC1 [Example 19-14] | < 100 | < 10
CCCCc1c(Nc2ncc(C3CC3)nc2C(=O)O)cccc1C1CCOCC1 [Example 19-17] | 100 to 1000 | < 10
CCOc1c(Nc2ncc(C3CC3)nc2C(=O)O)ccc(F)c1C1=CCOCC1 [Example 19-25] | 100 to 1000 | < 10
CCOC(=O)c1nc(C2CC2)cnc1Nc1cccc(C2=CCOCC2)c1OCC(F)(F)F [Example 20, ethyl 6-cyclopropyl-3-((3-(3,6-dihydro-2H-pyran-4-yl)-2-(2,2,2-trifluoroethoxy)phenyl)amino)pyrazine-2-carboxylate] | 100 to 1000 | ≥ 100
CCOc1c(Nc2ncc(C3CC3)nc2C(=O)O)cc(F)cc1C1=CCOCC1 [Example 19-5] | 100 to 1000 | 10 to 100
O=C(O)c1nc(C2CC2)cnc1Nc1cccc(C2CCOCC2)c1CCF [Example 19-19] | ≥ 1000 | 10 to 100
O=C(O)c1nc(C2CC2)cnc1Nc1cccc(C2CCOCC2)c1CCC(F)(F)F [Example 19-15] | < 100 | < 10
O=C(O)c1nc(C2CC2)cnc1Nc1cc(F)cc(C2=CCOCC2)c1OCC(F)(F)F [Example 5, 6-cyclopropyl-3-((3-(3,6-dihydro-2H-pyran-4-yl)-5-fluoro-2-(2,2,2-trifluoroethoxy)phenyl)amino) pyrazine-2-carboxylic acid] | < 100 | < 10
CC(C)OC(=O)c1nc(C2CC2)cnc1Nc1cccc(C2=CCOCC2)c1OCC(F)(F)F [Example 21, isopropyl 6-cyclopropyl-3-((3-(3,6-dihydro-2H-pyran-4-yl)-2-(2,2,2-trifluoroethoxy)phenyl)amino)pyrazine-2-carboxylate] | ≥ 1000 | ≥ 100
O=C(O)c1nc(C2CC2)cnc1Nc1cc(F)cc(C2CCOCC2)c1OCC(F)(F)F [Example 6, 6-cyclopropyl-3-((5-fluoro-3-(tetrahydro-2H-pyran-4-yl)-2-(2,2,2-trifluoroethoxy)phenyl)amino) pyrazine-2-carboxylic acid] | < 100 | < 10
O=C(O)c1nc(C2CC2)cnc1Nc1cccc(C2CCOCC2)c1CC(F)(F)F [Example 19-18] | 100 to 1000 | 10 to 100
CCOc1ccc(Nc2ncc(C3CC3)nc2C(=O)O)c(OCC)c1C1=CCOCC1 [Example 19-23] | 100 to 1000 | 10 to 100
Cc1c(Nc2ncc(C3CC3)nc2C(=O)O)cc(F)cc1C1=CCOCC1 [Example 19-4] | 100 to 1000 | 10 to 100
O=C(O)c1nc(C2CC2)cnc1Nc1cc(F)cc(C2CCOCC2)c1OC(F)F [Example 11, 6-cyclopropyl-3-((2-(difluoromethoxy)-5-fluoro-3-(tetrahydro-2H-pyran-4-yl)phenyl)amino)pyrazine-2-carboxylic acid] | < 100 | < 10
O=C(O)c1nc(C2CC2)cnc1Nc1cccc(C2CCOCC2)c1C1CC1 [Example 19-12] | 100 to 1000 | < 10
CC(C)c1c(Nc2ncc(C3CC3)nc2C(=O)O)cccc1C1CCOCC1 [Example 19-13] | 100 to 1000 | < 10
CCOc1ccc(Nc2ncc(C3CC3)nc2C(=O)O)cc1C1=CCOCC1 [Example 19-24] | 100 to 1000 | 10 to 100
O=C(O)c1nc(C2CC2)cnc1Nc1cccc(C2CCOCC2)c1CCC(F)F [Example 19-28] | < 100 | < 10
CCc1c(Nc2ncc(C3CC3)nc2C(=O)O)cccc1C1CCOCC1 [Example 12, 6-cyclopropyl-3-((2-ethyl-3-(tetrahydro-2H-pyran-4-yl)phenyl)amino)pyrazine-2-carboxylic acid] | < 100 | < 10
Cc1cnc(Nc2cccc(C3=CCOCC3)c2OCC(F)(F)F)c(C(=O)O)n1 [Example 19-33] | ≥ 1000 | 10 to 100
COC(=O)c1nc(C2CC2)cnc1Nc1cccc(C2=CCOCC2)c1OCC(F)(F)F [Example 1, methyl 6-cyclopropyl-3-((3-(3,6-dihydro-2H-pyran-4-yl)-2-(2,2,2-trifluoroethoxy)phenyl)amino)pyrazine-2-carboxylate] | 100 to 1000 | ≥ 100
CCc1cnc(Nc2cccc(C3=CCOCC3)c2OCC(F)(F)F)c(C(=O)O)n1 [Example 19-32] | 100 to 1000 | 10 to 100
CCOc1c(C2=CCOCC2)cc(F)c(F)c1Nc1ncc(C2CC2)nc1C(=O)O [Example 19-2] | 100 to 1000 | 10 to 100
CC(C)c1cnc(Nc2cccc(C3=CCOCC3)c2OCC(F)(F)F)c(C(=O)O)n1 [Example 19-31] | 100 to 1000 | 10 to 100
O=C(O)c1nc(C2CC2)cnc1Nc1cccc(C2CCOCC2)c1CC(F)F [Example 19-29] | < 100 | 10 to 100
